{"source": "patent US9517208B2", "about": "“Abuse-deterrent dosage forms” (PURDUE PHARMA L.P., priority 2013, dated 2016)", "assay": "Osmolality of mixtures of crushed tablets (or drug solution) in distilled water, Osmometer Model 3250", "assay_type": "physicochemical", "settings": "1 mg/ml, without dextrose, sodium chloride and potassium phosphate dibasic (control)", "description": "The osmolality of the resulting solution may be measured by using an osmometer (e.g., Advanced® Osmometer Model 3250, manufactured by Advanced Instruments, Inc., the User's Guide (3255 Rev13 042710) of which is herein incorporated by reference).\nTo determine whether mixtures formed by crushing tablets formulated prior to the present invention and mixing the crushed tablets with 3 mL or 5 mL of distilled water are hypertonic, a 30 mg Roxicodone® tablet^1 (oxycodone hydrochloride tablets USP) was crushed with a mortar and pestle to a powder. […]\n(§1) To determine whether the mixtures (i.e., solutions, suspensions or gels) formed by crushing these tablets and mixing the crushed tablets with 3 mL or 5 mL of distilled water are hypertonic, one tablet of each formulation was crushed with a mortar and pestle. […] The osmolality of the resulting mixtures was measured using Osmometer Model 3250 manufactured by Advanced Instruments, Inc. The following results were obtained: […]\nas §1, with “tablet from” for “tablet of”, “each blend” for “each formulation”, “and pestle to a powder.” for “and pestle.”, “measured twice” for “measured”"}
{"compound": "COc1ccc2c3c1O[C@H]1C(=O)CC[C@H]4[C@@H](C2)N(C)CC[C@]314.O=C(O)C(O)C(O)C(=O)O", "note": "[hydrocodone bitartrate]", "values": [{"measurement": "Osmolality of solution", "value": 4, "unit": "mOsmol"}]}
